From patent publication US20060134286A1, “Gallocatechin gallate-containing composition” (Suntory Limited, priority 2002, published 2006)

System: Streptococcus mutans (MT8148R)
Test: Antibacterial activity against Streptococcus mutans (colony count after 1 hour contact with sample)
Format: cell-based
Details: final concentration of the sample 1 mg/mL; 37° C. for 1 hour; colonies counted on MS agar medium after 2 days
Procedure: Streptococcus mutans (MT8148R) was cultured in a brain heart infusion medium (BHI, manufactured by Difco) at 37° C. for 18 hours. After collection of the cells by centrifugation, the precipitate was washed three times with a phosphate buffer solution (PBS, pH 6.8). Then the cells were suspended to give an absorbance of 0.5 at 550 nm. Thus, about 2×10^7 colonies per mL (expressed in colony forming unit: CFU) were formed . Next, an equal amount of a previously prepared sample solution was added to the suspension and the resultant mixture was allowed to stand at 37° C. for 1 hour. 0.1 mL of this liquid mixture or the same mixture seriously 10-fold diluted was sowed on a Mitis salivarius agar medium (MS agar medium, manufactured by Difco). After culturing at 37° C. for 2 days, the colonies thus formed were counted. The antibacterial activity was indicated in the logarithm of CFU of test group/CFU of control lot (i.e., the reducing ratio).
The mixing ratio of EGCG to GCG (manufactured by Sigma) was varied so as to adjust the final concentration of the sample to 1 mg/mL and thus the antibacterial activity was examined. […]

O=C(O[C@@H]1Cc2c(O)cc(O)cc2O[C@H]1c1cc(O)c(O)c(O)c1)c1cc(O)c(O)c(O)c1 [GCG, gallocatechin gallate]
Antibacterial activity (logarithm of CFU of test group/CFU of control lot, the reducing ratio): −3.17

(−)-epigallocatechin gallate [EGCG]
Antibacterial activity (logarithm of CFU of test group/CFU of control lot, the reducing ratio): −3.50
